The text below walks through data of patent US20020142436A1, “Human adenylate cyclase and use therefor” (priority 1995, published 2002).

The target of experiment [1] is FKBP-12 (Homo sapiens, UniProt P62942). Conditions: cited from earlier work.
In experiment [2] the test system is HEK293 cells overexpressing human AC9. Description: Ca2+/calcineurin inhibition of cAMP production in HEK293 cells overexpressing human AC9. The class given is cell-based. How it is done: The complete coding sequence of human AC9 was cloned into the expression vector pcDNA3. This constuct and pcDNA3 (10 μg) were each linearised by PvuI digestion prior to electroporation into HEK293 cells. Stably transfected clones were selected for resistance to G418 (Gibco) at […] in Dulbecco's modified Eagle's medium (DMEM) supplemented with 10% foetal calf serum. A total of 12 clones were expanded and over-expression of human AC9 confirmed in 9 cell lines by immunoblotting using antisera raised against a pentadecapeptide derived from the N-terminus of mouse AC9 (Paterson et al, (1995) Biochem. Biophys. Res. Commun. 214:1000-8). […] Analysis of clone 7 is reported here.
HEK-293 cells display complex intracellular Ca2+ handling mechanisms that may be controlled by cAMP and calcineurin (Lin et al, (1995) Mol. Pharmacol. 47:131-9; Gromada et al, (1995) FEBS Letts. 373:182-6; Querfurth et al, (1998) Biochem J. 334:79-86), and thus complicate the interpretation of the data. Therefore, intracellular stores of Ca^2+ were depleted to reduce the contribution of intracellular Ca^2+ pools to the intracellular free Ca^2+ signal. […] Two different Ca^2+ depletion protocols were used (Antoni et al, (1998) supra). […] The total cAMP content of the cells and the medium was determined after freeze-thawing and acetylation by radioimmunoassay (Antoni et al, (1995) J. Biol. Chem. 270:28055-61).

The subject of experiment [3] is HEK293 cells transfected with AC. The experiment can be described thus: cAMP in HEK293 cells transiently transfected with AC. The class given is cell-based, human. Conditions: L-685,818 100 μmol/l.
Experiment [4] concerns HEK293 cells. The experiment can be described thus: CRF-induced and unstimulated cAMP in HEK293 cells without AC (wild type, sham or pcDNA3 vector). The class given is cell-based, human. Conditions: FK506 2 μmol/l, L-685,818 100 μmol/l.
Description: Both expression plasmids (10 μg) were transfected into SV40-transformed monkey embryonic kidney (COS-7) cells grown in DMEM and 10% fetal bovine serum to 70% confluency in 75 cm^2 flasks following the double DEAE-dextran transfection protocol (Ishikawa et al, (1992) Nucl. Acids Res. 20:4367), while only AC cDNA was transfected into adenovirus-transformed human embryonic kidney (HEK293) cells as these express endogenous receptors for CRF (F. A. Antoni, unpublished data). In control transfections pcDNA3 vector DNA replaced the AC expression construct. […]
Experiment [5] relates to calcineurin. Conditions: cited from earlier work.
For experiment [6], the system named is HEK293 cells stably expressing AC. The experiment can be described thus: cAMP production in HEK293 cell lines stably expressing AC. The class given is cell-based, human. (Cyclic AMP is a second messenger, typically raised through Gs and lowered through Gi signalling.)
Description: In particular cell lines derived from the human embryonic kidney cell line 293 (HEK293) have been generated and stably express AC. Briefly, the cells were transfected with pcDNA3 containing the full length AC DNA (clone JP 173—see Example 3) and cells were selected on the basis of resistance to G418 antibiotic (0.8 mg/ml) for 4 weeks. Individual clones of resistant cells were expanded and tested for cAMP production in response to CRF and the effects of immunosuppressants were also examined.
Experiment [7] relates to AtT20 cells. Description: CRF-induced cAMP accumulation in AtT20 cells. The class given is cell-based, mouse. How it is done:
Experiments for cAMP were all carried out in Hanks balanced salt solution containing 2 mM CaCl2 and 1 mM MgSO4 buffered with 25 mM HEPES pH 7.4 and supplemented with 0.25% (w/v) of bovine serum albumin. The cells were preincubated in serum free medium for 1 hour, after which blockers of phosphosdiesterase (isobutylmethylxanthine 0.5 mM (IBMX) and/or rolipram 0.1 mM) along with various other treatments were applied for 30 minutes at 37° C. Subsequently the cells were cooled to 22° C. for 5 minutes in a water bath and agonists were added for 10 minutes. The reaction was stopped by the addition of 0.2 mol/l HCl to achieve a final concentration of 0.1 mol/l (Brooker et al, (1979) Adv. in Cyclic Nucl. Res. Vol. 10, G. Brooker, P. Greengard and G. A. Robinson, Raven Press, New York, 2-34).
In some experiments cells were preincubated for 30 minutes in medium containing 2 mmol/l EGTA and no added Ca^2+, supplemented with 5 μmol/l A23187 and 2.5 μmol/l nifedipine in order to deplete rapidly mobilized cellular stores of Ca^2+. […] The rationale for this pretreatment is that calcineurin reportedly influences L-channel activity (Lai et al, (1993) J. Neurochem. 61:1333-1339; and Armstrong et al, (1987) Proc. Natl. Acad. Sci. U.S.A. 84:2518-2522), whereas the treatment regimen used here would make Ca^2+ entry independent of this regulation.
These compounds were made up in ethanol at 10^−3 mol/l and diluted with the incubation medium to the desired final concentrations. In some cases cells were preincubated with L685,818 the structural analogue of FK506 that binds to FKBP-12 and inhibits prolyl-isomerase activity but is devoid of immunosuppressant activity (Dumont et al, (1992) J. Exp. Med. 176:751-760) for 10 minutes before the addition of FK506 for 30 minutes at 37° C.

Experiment [8] relates to calcineurin. The experiment can be described thus: calcineurin activity in AtT20 cells (phosphocasein method). The class given is biochemical, mouse. To be noted: 1 μmol/l FK506, phosphocasein.
The subject of experiment [9] is AtT20 cells. Description: ACTH release by AtT20 cells. The class given is cell-based, mouse.

Entries after “also recorded” stand apart in the source; their conditions may differ. Like-named read-outs stand apart in the source and are kept apart here.

Sequence of FKBP-12 (P62942 whole entry, species assumed): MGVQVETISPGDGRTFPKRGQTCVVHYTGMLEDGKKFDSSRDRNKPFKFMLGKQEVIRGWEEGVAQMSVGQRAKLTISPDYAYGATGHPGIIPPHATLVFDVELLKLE

Regarding `CC[C@@H]1/C=C(\C)[C@@H](O)[C@H](C)C[C@H](OC)[C@H]2O[C@@](O)(C(=O)C(=O)N3CCCC[C@H]3C(=O)O[C@H](/C(C)=C/[C@@H]3CC[C@@H](O)[C@H](OC)C3)[C@H](C)[C@@H](O)CC1=O)[C@H](C)C[C@@H]2OC` [L685,818], the “FKBP-12 prolyl isomerase activity” value in experiment [1] is on record as “potent inhibitor”. The “cAMP production in hAC9 expressing cells” value in experiment [2] is listed as “had no effect on cAMP production”. In addition, in experiment [2] (FK506, cyclosporin A, rapamycin 10 μM, L685,818 50 μM, PDE blockers present), the “inhibitory effect of Ca2+ on cAMP production” value is “failed to block the inhibitory action of Ca^2+ on cAMP production”. The “cAMP response to CRF” value in experiment [3] (FK506 2 μmol/l) is reported as “no significant effect on CRF-induced cAMP production; also recorded: no effect on CRF-induced cAMP formation when given alone”. Also, the “blockade of the enhancement of the CRF-induced cAMP response by FK506” value in experiment [3] (1 nmol/l CRF) is listed as “blocked the enhancement of the response to 1 nmol/l CRF by FK506”. For the same compound, in experiment [4], the “cAMP levels in sham-transfected or pcDNA3-transfected cells” value was “no effect in sham-transfected or pcDNA3-transfected cells”. The blockade of calcineurin entry in experiment [5] was “does not block calcineurin”; in [5] (listed as L-685,818), “do not inhibit calcineurin”. The “blockade of the FK506 effect on CRF-induced cAMP production” value in [6] is on record as “blocked”. In addition, the “cAMP formation, compound given alone” value in experiment [7] was “no discernible effect”. Also, the “antagonism of the effect of FK506 on CRF-induced cAMP production” value in experiment [7] (10 nmol/l CRF) is reported as “antagonized”. The “effect on the inhibition of calcineurin activity by FK506” value in experiment [8] was “blocked the inhibitory effect of FK506 on calcineurin-mediated dephosphorylation of phosphocasein”. The “ACTH secretion, compound given alone” value in [9] is reported as “no discernible effect; also recorded: no effect on basal ACTH secretion”. The “antagonism of the effect of FK506 on CRF-induced ACTH release” value in [9] (FK506 0.5 μmol/l) is “prevented”.
